These results are taken from paper PMC12678798, “Discovery of an allosteric binding site for anthraquinones at the human P2X4 receptor” (Nature Communications, 2025).

The target of one assay is T1, human wt P2X2 receptor (Homo sapiens, UniProt Q9UBL9).
T1 construct: expressed in transfected cells
T1 sequence (Q9UBL9 1-471): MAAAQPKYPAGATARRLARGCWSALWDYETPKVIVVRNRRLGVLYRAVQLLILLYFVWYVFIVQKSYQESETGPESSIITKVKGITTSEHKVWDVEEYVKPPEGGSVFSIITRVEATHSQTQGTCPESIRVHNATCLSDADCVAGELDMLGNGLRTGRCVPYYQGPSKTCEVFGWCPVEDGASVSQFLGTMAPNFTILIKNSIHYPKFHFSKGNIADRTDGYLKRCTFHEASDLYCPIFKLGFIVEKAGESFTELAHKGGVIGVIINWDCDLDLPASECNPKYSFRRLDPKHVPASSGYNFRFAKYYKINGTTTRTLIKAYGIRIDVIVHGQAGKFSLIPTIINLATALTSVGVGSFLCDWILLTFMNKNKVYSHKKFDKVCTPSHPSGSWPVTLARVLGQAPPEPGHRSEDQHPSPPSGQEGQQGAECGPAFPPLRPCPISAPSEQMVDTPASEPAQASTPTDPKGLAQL
Kind of assay: ATP-induced calcium influx assay, human wt P2X2 receptor in 1321N1 astrocytoma cells. The format is cell-based.

The target in assay [1] is T2, wild-type (wt) human (h) P2X4 receptor (Homo sapiens, UniProt Q99571).
T2 construct: host or cells: Xenopus laevis oocytes injected with cRNA (pNKS2 vector)
As to the kind of experiment: Two-electrode voltage clamp (TEVC), wt hP2X4 in Xenopus laevis oocytes. In kind it is cell-based. The settings on record: TEVC at -60 mV. How it is done:
Xenopus laevis frogs were from Nasco International (Fort Atkinson, WI, USA) and kept at the Core Facility Animal Models (CAM) of the BMC of LMU Munich, Germany (Az: 4.3.2–5682/LMU/BMC/CAM) in accordance with the EU Animal Welfare Act. […] Fifty nanoliters of cRNA (0.5 µg/µL) were injected using a Nanoject II injector (Science Products, Drummond, USA) and oocytes were kept in ND96 (96 mM NaCl, 2 mM KCl, 1 mM MgCl2, 1 mM CaCl2, 5 mM HEPES, pH 7.4–7.5) supplemented with 5 μg/mL gentamicin at 16 °C.
cDNA encoding human P2X4 receptor (NM_002560.3) was obtained from BioCat GmbH (Heidelberg, Germany) and cloned into the pNKS2 vector[87] using Gibson Assembly (E2621L, New England Biolabs, USA) according to the manufacturer’s instructions. Point mutations were introduced by site-directed mutagenesis using KLD Enzyme Mix (M0554S, New England Biolabs, USA). All constructs were verified by full-length cDNA sequencing (Eurofins Genomics, Germany). Plasmids were linearized with NotI-HF (R3189S, New England Biolabs, USA) and purified using the MinElute Reaction Cleanup Kit (Qiagen, Hilden, Germany). […]
Statistical analysis was performed with GraphPad Prism version 10 software, and data are presented as means ± SEM. Data were assessed for normality using the Shapiro–Wilk test and for homogeneity of variances using Levene’s test. […]

Assay [2] concerns the target chimeric P2X4(P2X2) receptor c8^R265-L269 (Homo sapiens, UniProt Q99571, A266P/L269E/R265L). As to the kind of experiment: cell-based.
Assay [3] addresses T3, P2X4-Q308T receptor mutant (Homo sapiens, UniProt Q99571, Q308T).
T3 sequence (Q99571 1-388 Q308T): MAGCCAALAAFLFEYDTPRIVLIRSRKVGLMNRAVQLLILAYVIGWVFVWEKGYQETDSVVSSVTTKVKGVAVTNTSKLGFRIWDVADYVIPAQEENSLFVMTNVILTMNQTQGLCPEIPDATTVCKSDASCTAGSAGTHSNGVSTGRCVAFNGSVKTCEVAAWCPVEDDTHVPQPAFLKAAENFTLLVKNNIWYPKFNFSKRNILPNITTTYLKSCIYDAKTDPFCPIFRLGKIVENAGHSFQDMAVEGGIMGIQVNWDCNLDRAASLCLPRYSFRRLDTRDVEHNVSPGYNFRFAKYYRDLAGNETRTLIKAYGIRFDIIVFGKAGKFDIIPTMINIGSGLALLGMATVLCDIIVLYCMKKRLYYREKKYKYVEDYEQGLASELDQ
As to the kind of experiment: cell-based.

T2 sequence (Q99571 whole entry): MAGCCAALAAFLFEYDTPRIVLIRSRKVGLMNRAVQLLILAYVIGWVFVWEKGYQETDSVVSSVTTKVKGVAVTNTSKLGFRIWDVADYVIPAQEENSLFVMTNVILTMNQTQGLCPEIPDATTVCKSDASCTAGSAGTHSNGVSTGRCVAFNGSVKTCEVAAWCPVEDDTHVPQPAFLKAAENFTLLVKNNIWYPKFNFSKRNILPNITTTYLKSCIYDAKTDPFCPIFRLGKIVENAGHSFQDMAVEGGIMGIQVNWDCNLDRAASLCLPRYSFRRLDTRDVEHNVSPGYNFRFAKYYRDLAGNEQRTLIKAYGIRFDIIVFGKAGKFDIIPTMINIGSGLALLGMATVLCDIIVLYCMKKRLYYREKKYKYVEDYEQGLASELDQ
Sequence of chimeric P2X4(P2X2) receptor c8^R265-L269 (Q99571 whole entry R265L/A266P/L269E): as the sequence (Q99571 whole entry) above, with R265L, A266P, L269E counted along it

Turning to `Nc1ncnc2c1ncn2[C@@H]1O[C@H](COP(=O)(O)OP(=O)(O)OP(=O)(O)O)[C@@H](O)[C@H]1O` [ATP, Adenosine 5′-triphosphate], the EC50 at human wt P2X2 receptor (ATP EC50, wt hP2X2, calcium influx) was 0.637 µM; on human wt P2X2 receptor (ATP pEC50 ± SEM, wt hP2X2), 0.759 µM; in assay [1] it was approximately 10 µM; in assay [2], 0.389 µM; in assay [3] (ATP EC50, P2X4-Q308T), 0.295 µM; in assay [3] (ATP pEC50 ± SEM, P2X4-Q308T), 0.275 µM.
